The record followed here is a melting point compilation (Tetko et al.).

Structures are written as SMILES.

The melting point is the temperature of the solid-liquid transition. In turn, `Nc1ccc(Br)cc1C(=O)c1ccccc1F` came in with a melting point of 100 to 104 °C.
In the case of `CCOc1ccc(N=C(CNc2ccc(OCC)cc2)Nc2ccc(OCC)cc2)cc1`, the melting point is 113 °C.
For `CCOC(=O)c1cc(Cl)c(O)c(Cl)c1`, the melting point amounted to 111 °C.
The compound `C=CC1=C(C=NNc2ccc([N+](=O)[O-])cc2[N+](=O)[O-])CCCC1` came in with a melting point of 152 to 153 °C.
In turn, `BrCc1ccc(I)cc1` returned a melting point of 80 °C.
In turn, `Clc1ccc(C(c2ccccc2Cl)C(Cl)Cl)cc1` (stereo unspecified) came in with a melting point of 77 °C.
For `C=CC[Si](c1ccccc1)(c1ccccc1)c1ccccc1` the value was 88 to 90 °C; for `CCC(CC)Nc1c([N+](=O)[O-])cc(C)c(C)c1[N+](=O)[O-]`, 58 °C; for `C=C(C)CCCCCCC`, -64 °C.
In turn, `CCc1ccccc1Cc1ccccc1` registered a melting point of -11 °C.
The compound `CN(C=O)c1ccc(C(=O)O)cc1` showed a melting point of 217 to 221 °C.
For `NC1=C(c2ccccc2)C(=O)c2ccccc21`, the melting point was in the range of 270 to 273 °C.
For `COc1ccc2ccccc2c1C` the value was 126 °C; for `NC(=O)CN1Cc2ccccc2OC1=O`, 203 °C; for `Cc1ccc([N+](=O)[O-])c(N)n1`, 146 to 150 °C.
For `CCCCCCC1CCCC1` the value was -73 °C; for `NC(=O)NCc1ccc(F)cc1`, 172 to 175 °C; for `CC(=O)N(CC(O)CO)c1c(I)c(C(=O)NCC(O)CO)c(I)c(C(=O)NCC(O)CO)c1I` (stereo unspecified), 177 °C.
For the compound `Cc1cccc(Nc2ccccc2C(=O)O)c1C`, the melting point is 231 °C.
Consider `CC(=O)Nc1ccccc1CCN(CCc1ccccc1NC(C)=O)C(C)=O`, for which the melting point was 188 to 190 °C.
In the case of `O=c1cc(C(F)(F)F)nc2scc(-c3ccc(Br)cc3)n12` it was 171 °C; in that of `O=C(c1ccccc1)c1cnc2ccc(Br)cn2c1=O`, 208 to 210 °C.
`Cc1cc(N2CCNCC2)c2ccccc2n1` showed a melting point of 101 to 103 °C.
`CC1CC(N(C)C)C(O)C(OC2C(C)CC(C)C(=O)C=CC(C)C(C(C)O)OC(=O)C2C)O1` (stereo unspecified): the melting point came to 157 °C.
In the case of `Clc1ccc(OCOc2ccc(Cl)cc2)cc1` it was 70.5 °C.
In turn, `O=c1[nH]c(=S)[nH]c2ccccc12` gave a melting point of 320 to 322 °C.
For `CCC(C)(CC)OC(N)=O` the value was 56 °C; for `CC(=O)OC[C@@H](OC(C)=O)[C@H](OC(C)=O)[C@H](OC(C)=O)[C@@H](OC(C)=O)c1nnn[nH]1`, 109 °C; for `NC(c1ccccc1)c1ccccc1`, 34 °C.
`CC(=O)c1ccc(O)c(C(N)=O)c1` showed a melting point of 221 to 226 °C.
Consider `CCCCCCCCCCCCCC(CCCCCCCCCCCC)CCCCCCCCCCCC`, for which the melting point stood at 13.7 °C.
For `O=C1Nc2ccc(Br)cc2C1=O` the value was 251 to 253 °C; for `CCN(CC)C(=O)SCc1ccc(Cl)cc1`, 3.3 °C.
For `Sc1nc2ccccc2o1` the value was 192 to 195 °C; for `O=C1C=C(NCNc2ccccn2)C(=O)c2ccccc21`, 134 to 136 °C.
In the case of `CCOC(C)(C)C` it was -94 °C; in that of `C/C=C/C1Nn2c(nnc2-c2cccc([N+](=O)[O-])c2)S1` (stereo unspecified), 222 to 224 °C; in that of `CC(=O)CCc1cc2c(cc1[N+](=O)[O-])CCC(C)N2` (stereo unspecified), 95 °C.
Compound `CC1=NNC(=N)Nc2c1c(=O)n(-c1ccccc1)c1ccccc21` registered a melting point of 227 °C.
Turning to `Cc1cc(C)c(CC(=O)c2oc3ccccc3c2NC(=O)Cc2ccccc2)c(C)c1`, the melting point was in the range of 156 to 157 °C.
For `O=C(O)CCc1cccc(Br)c1` the value was 76 to 78 °C; for `CC(CCC(=O)O)C1CCC2C3C=CC4CCCCC4(C)C3CCC12C` (stereo unspecified), 152 to 160 °C; for `Cc1ccc([C@H]2O[C@@H](c3ccc(C)cc3)[C@H](C)C(=O)[C@@H]2C)cc1`, 140 °C.
`Cc1ccc(C(N)=O)c(N)c1` returned a melting point of 147 to 148 °C.
`Nc1nccnn1` yielded a melting point of 176 °C.
The compound `CC(C)CC1=CC(=Cc2ccc(-c3ccc([N+](=O)[O-])cc3)o2)C(=O)O1` displayed a melting point of 162 to 163 °C.
For the compound `CCCCCCOc1ccc(O)cc1`, the melting point is 46 °C.
Take `CSc1nc2ccccc2c(=O)[nH]1`: the melting point was in the range of 223 to 225 °C.
In turn, `Cc1ccccc1CCC(=O)O` came in with a melting point of 104 to 106 °C.
On to `Cc1ccc(N)cc1I`, for which the melting point came to 36 °C.
`C=CCCCCCCCCC=O` had a melting point of 7 °C.
In the case of `O=C(OCC(=O)N1CCCCC1)c1ccccc1` it was 88 °C.
For `COC(=O)c1ccc(C(N)=O)cc1` the value was 206 °C.
For `CC(c1cc2ccccc2s1)N(O)C(N)=O` (stereo unspecified) the value was 157 °C.
Consider `CCCCCCCCOc1ccccc1OCCCCCCCC`, for which the melting point lay within 22 to 25 °C.
The compound `O=c1cccc2n1CC1CNCC2C1` (stereo unspecified) displayed a melting point of 152 °C.
For `O=C(CF)c1ccccc1` the value was 29 °C; for `Oc1ccc2c(c1)C13CCCCC1C(C2)N(CC1CC1)CC3` (stereo unspecified), 188 °C.
For `c1ccc(N2CCN(c3ccccc3)CC2)cc1` the value was 165 °C.
In the case of `Nc1ccccc1-n1ccnc1` it was 106 to 107 °C; in that of `CC1(C)NC(=CC(=O)c2ccccc2)C(C)(C)N1O`, 178 to 184 °C.
`C=CCOC(=O)Nc1cc(O)cc(C(=O)O)c1` came in with a melting point of 194 to 197 °C.
As for `O=C1CC(=O)N(c2ccccc2)N1`, the melting point came out at 191 °C.
In the case of `COc1ccc(N=C=O)c(OC)c1` it was 32 °C; in that of `CCOC(=O)C(CCc1ccccc1)NC(C)C(=O)N1C(=O)N(C)CC1C(=O)O` (stereo unspecified), 139 °C.
For `CCC1(CC)C(=O)NC(=O)N(C)C1=O`, the melting point was determined as 155 °C.
Regarding `Oc1c(Cl)cccc1-c1ccccc1`, the melting point was 6 °C.
In the case of `S=C=Nc1c(Br)cc(Br)cc1Br` it was 106 to 110 °C; in that of `COC(=O)c1ccc(C(=O)OC)c(N)c1`, 132 to 134 °C.
In turn, `O=C(O)c1c(F)cccc1C(F)(F)F` had a melting point of 88 to 89 °C.
In the case of `O=C1CCC(c2ccccc2)O1` (stereo unspecified) it was 36.5 °C; in that of `O=C(CCl)Nc1cccc(C(F)(F)F)c1`, 62.5 to 64 °C.
In turn, `Cc1ccc(CBr)cc1` registered a melting point of 35 °C.
For `CCCCCCCCCI` the value was -20 °C.
In turn, `O=P1(NCCCl)OCCCN1CCCl` (stereo unspecified) returned a melting point of 43.4 °C.
Consider `CC(=O)Nc1ccc(CC(=O)O)cc1`, for which the melting point amounted to 173 °C.
In the case of `ON=Cc1ccco1` it was 78 to 80 °C; in that of `CC(C)(C)OC(=O)NC(CCC(N)=O)C(=O)O` (stereo unspecified), 119 °C.
For the compound `O=C(Nc1ccccc1/C=C/c1ccccc1)c1ccccc1`, the melting point was found to be 168 °C.
For `O=C(c1c[nH]c2ccccc12)C(F)(F)F` the value was 211 to 214 °C; for `O=C(OCC(=O)N1CCC[C@H]1C(=O)O)c1ccccc1`, 116 °C.
